Results as given in PubChem BioAssay AID330 (DTP/NCI, 2004).
Values joined by “and” are separate entries in the source; they are usually repeats but may differ in a detail not shown here. Identical values can stand only once. Inconclusive results and toxic doses are left out.

Test system: P388 leukemia ip, CD2F1 mice, survival T/C
Experiment: NCI In Vivo Anticancer Drug Screen. Data for tumor model P388 Leukemia (intraperitoneal) in CD2F1 (CDF1) mice
Conditions: endpoint: median survival time, higher = longer survival
Summary of the method: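 Mice carrying the transplanted tumor received test compound or vehicle. Survival was recorded in each group, and the value is the treated-group measurement divided by that of the vehicle-treated control group.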

[1] = dose: 60.0 mg/kg/injection, schedule: Q01DX005 (ip), vehicle: saline with Tween-80
[2] = dose: 120.0 mg/kg/injection, schedule: Q01DX005 (ip), vehicle: saline with Tween-80
[3] = dose: 240.0 mg/kg/injection, schedule: Q01DX005 (ip), vehicle: saline with Tween-80
[4] = dose: 50.0 mg/kg/injection, schedule: Q01DX005 (ip), vehicle: saline with Tween-80
[5] = dose: 100.0 mg/kg/injection, schedule: Q01DX005 (ip), vehicle: saline with Tween-80
[6] = dose: 200.0 mg/kg/injection, schedule: Q01DX005 (ip), vehicle: saline with Tween-80
[7] = dose: 25.0 mg/kg/injection, schedule: Q01DX009 (ip), vehicle: Klucel (hydroxypropylcellulose) (HPC)
[8] = dose: 50.0 mg/kg/injection, schedule: Q01DX009 (ip), vehicle: Klucel (hydroxypropylcellulose) (HPC)
[9] = dose: 100.0 mg/kg/injection, schedule: Q01DX009 (ip), vehicle: Klucel (hydroxypropylcellulose) (HPC)
[10] = dose: 200.0 mg/kg/injection, schedule: Q01DX009 (ip), vehicle: Klucel (hydroxypropylcellulose) (HPC)
[11] = dose: 100.0 mg/kg/injection, schedule: Q04DX003 (ip), vehicle: saline
[12] = dose: 200.0 mg/kg/injection, schedule: Q04DX003 (ip), vehicle: saline

Cn1c(=S)[nH]c2sc3c(c2c1=O)CCCCC3
T/C [1]: 101 % of control | T/C [2]: 97 % of control | T/C [3]: 90 % of control

CC(=O)OCC1OC(n2cnc(C(N)=S)c2N)C(OC(C)=O)C1OC(C)=O (stereo unspecified)
T/C [1]: 100 % of control | T/C [2]: 103 % of control | T/C [3]: 110 % of control

COC(=O)C(Cc1c[nH]c2ccccc12)NC(=O)C(CCCCN)N(C(=O)OCc1ccccc1)C(=O)OCc1ccccc1 (stereo unspecified)
T/C [4]: 92 % of control | T/C [5]: 91 % of control | T/C [6]: 86 % of control

C/C=C/C=C/C(O)CC(=O)N1OC2(C)c3ccccc3C1(C)c1ccccc12 (stereo unspecified)
T/C (dose: 100.0 mg/kg/injection, schedule: Q04DX003 (ip), vehicle: saline + alcohol): 92 % of control | T/C (dose: 200.0 mg/kg/injection, schedule: Q04DX003 (ip), vehicle: saline + alcohol): 92 % of control | T/C (dose: 400.0 mg/kg/injection, schedule: Q04DX003 (ip), vehicle: saline + alcohol): 98 % of control

CC(CC(N)=O)Cc1ccccc1 (stereo unspecified)
T/C (dose: 100.0 mg/kg/injection, schedule: Q01DX001 (ip), vehicle: saline with Tween-80): 104 % of control | T/C (dose: 200.0 mg/kg/injection, schedule: Q01DX001 (ip), vehicle: saline with Tween-80): 103 % of control | T/C (dose: 400.0 mg/kg/injection, schedule: Q01DX001 (ip), vehicle: saline with Tween-80): 104 % of control

NC(=O)c1cc([N+](=O)[O-])ccc1N=NN(CCCl)Cc1ccccc1
T/C (dose: 100.0 mg/kg/injection, schedule: Q04DX003 (ip), vehicle: Klucel (hydroxypropylcellulose) (HPC)): 111 % of control | T/C (dose: 200.0 mg/kg/injection, schedule: Q04DX003 (ip), vehicle: Klucel (hydroxypropylcellulose) (HPC)): 122 % of control | T/C (dose: 400.0 mg/kg/injection, schedule: Q04DX003 (ip), vehicle: Klucel (hydroxypropylcellulose) (HPC)): 162 % of control

Clc1ccc(-c2noc(/C=C\c3ccccc3)n2)cc1
T/C [7]: 99 % of control and 86 % of control | T/C [8]: 98 % of control and 86 % of control | T/C [9]: 86 % of control and 97 % of control | T/C [10]: 95 % of control

Cc1oc2ccccc2c(=O)c1CN(CCO)CCO
T/C (dose: 60.0 mg/kg/injection, schedule: Q01DX005 (ip), vehicle: saline): 95 % of control | T/C (dose: 120.0 mg/kg/injection, schedule: Q01DX005 (ip), vehicle: saline): 101 % of control

C(=Nc1ccc2ccc3cccc4ccc1c2c34)c1ccncc1
T/C (dose: 25.0 mg/kg/injection, schedule: Q01DX005 (ip), vehicle: Klucel (hydroxypropylcellulose) (HPC)): 102 % of control | T/C (dose: 50.0 mg/kg/injection, schedule: Q01DX005 (ip), vehicle: Klucel (hydroxypropylcellulose) (HPC)): 100 % of control | T/C (dose: 100.0 mg/kg/injection, schedule: Q01DX005 (ip), vehicle: Klucel (hydroxypropylcellulose) (HPC)): 100 % of control | T/C (dose: 200.0 mg/kg/injection, schedule: Q01DX005 (ip), vehicle: Klucel (hydroxypropylcellulose) (HPC)): 92 % of control

CC(C)C[N+]1(Cc2ccc(Cl)cc2Cl)CCOCC1
T/C [11]: 101 % of control | T/C [12]: 93 % of control

Cc1cc(NC(=O)c2ccc(N=Nc3cc(S(=O)(=O)O)c4ccccc4c3O)cc2)ccc1N=Nc1ccc2cc(S(=O)(=O)O)cc(S(=O)(=O)O)c2c1
T/C (dose: 12.5 mg/kg/injection, schedule: Q01DX005 (ip), vehicle: saline with Tween-80): 102 % of control and 97 % of control | T/C (dose: 25.0 mg/kg/injection, schedule: Q01DX005 (ip), vehicle: saline with Tween-80): 99 % of control and 97 % of control | T/C [4]: 101 % of control and 111 % of control | T/C [5]: 102 % of control and 109 % of control and 117 % of control | T/C [6]: 101 % of control

CN(C)c1ccc(C=Nc2cccc(Cl)c2)cc1
T/C [8]: 108 % of control | T/C [9]: 98 % of control | T/C [10]: 103 % of control

CN1CCCOC(c2ccccc2)c2ccsc2CC1 (stereo unspecified)
T/C (dose: 7.5 mg/kg/injection, schedule: Q01DX005 (ip), vehicle: saline with Tween-80): 101 % of control | T/C (dose: 15.0 mg/kg/injection, schedule: Q01DX005 (ip), vehicle: saline with Tween-80): 102 % of control | T/C (dose: 30.0 mg/kg/injection, schedule: Q01DX005 (ip), vehicle: saline with Tween-80): 102 % of control | T/C [1]: 101 % of control and 93 % of control

COc1cc(OC2OC(CO)C(O)C(O)C2O)c2c(O)c3c(=O)cc(C)oc3cc2c1 (stereo unspecified)
T/C (dose: 3.75 mg/kg/injection, schedule: Q01DX009 (ip), vehicle: Klucel (hydroxypropylcellulose) (HPC)): 100 % of control | T/C (dose: 7.5 mg/kg/injection, schedule: Q01DX009 (ip), vehicle: Klucel (hydroxypropylcellulose) (HPC)): 100 % of control | T/C (dose: 15.0 mg/kg/injection, schedule: Q01DX009 (ip), vehicle: Klucel (hydroxypropylcellulose) (HPC)): 94 % of control | T/C (dose: 30.0 mg/kg/injection, schedule: Q01DX009 (ip), vehicle: Klucel (hydroxypropylcellulose) (HPC)): 101 % of control

CSC(=S)c1ccc(NS(=O)(=O)c2ccccc2)cc1
T/C [11]: 100 % of control | T/C [12]: 106 % of control | T/C (dose: 400.0 mg/kg/injection, schedule: Q04DX003 (ip), vehicle: saline): 105 % of control

COc1nc(N)c2c3c([nH]c2c1C#N)C(C)(C)c1ccccc1N3C
T/C (dose: 50.0 mg/kg/injection, schedule: Q01DX009 (ip), vehicle: saline with Tween-80): 96 % of control | T/C (dose: 100.0 mg/kg/injection, schedule: Q01DX009 (ip), vehicle: saline with Tween-80): 100 % of control | T/C (dose: 200.0 mg/kg/injection, schedule: Q01DX009 (ip), vehicle: saline with Tween-80): 94 % of control

COC1/C=C\OC2(C)Oc3c(C)c(O)c4c(O)c(c5c(c4c3C2=O)OC[N+](C)=C5)NC(=O)/C(C)=C\C=C\C(C)C(O)C(C)C(O)C(C)C(OC(C)=O)C1C (stereo unspecified)
T/C [7]: 92 % of control | T/C [8]: 97 % of control | T/C [9]: 95 % of control | T/C [10]: 95 % of control

NC(CSCc1ccc(N(CCCl)CCCl)cc1)C(=O)O (stereo unspecified)
T/C (dose: 4.0 mg/kg/injection, schedule: Q01DX009 (ip), vehicle: saline with Tween-80): 172 % of control | T/C (dose: 6.0 mg/kg/injection, schedule: Q01DX009 (ip), vehicle: saline with Tween-80): 218 % of control | T/C (dose: 6.25 mg/kg/injection, schedule: Q01DX009 (ip), vehicle: saline with Tween-80): 245 % of control | T/C (dose: 9.0 mg/kg/injection, schedule: Q01DX009 (ip), vehicle: saline with Tween-80): 159 % of control

CCCCN=C(N)NN=C(c1ccc(C)cc1)c1ccc(C)cc1
T/C (dose: 25.0 mg/kg/injection, schedule: Q04DX002 (ip), vehicle: saline with Tween-80): 102 % of control | T/C (dose: 50.0 mg/kg/injection, schedule: Q04DX002 (ip), vehicle: saline with Tween-80): 99 % of control

COc1ccc2cc3n(c(=N)c2c1OC)CCc1cc2c(cc1-3)OCO2
T/C (dose: 0.63 mg/kg/injection, schedule: Q01DX009 (ip), vehicle: water): 101 % of control | T/C (dose: 1.25 mg/kg/injection, schedule: Q01DX009 (ip), vehicle: water): 110 % of control | T/C (dose: 2.5 mg/kg/injection, schedule: Q01DX009 (ip), vehicle: water): 105 % of control | T/C (dose: 5.0 mg/kg/injection, schedule: Q01DX009 (ip), vehicle: water): 110 % of control | T/C (dose: 10.0 mg/kg/injection, schedule: Q01DX009 (ip), vehicle: water): 110 % of control | T/C (dose: 20.0 mg/kg/injection, schedule: Q01DX009 (ip), vehicle: water): 110 % of control

CCOc1ccc2ccc3cccnc3c2n1
T/C [1]: 96 % of control | T/C [2]: 94 % of control | T/C [3]: 99 % of control

C=CC(C)(O)CS(=O)(=O)c1ccccc1 (stereo unspecified)
T/C (dose: 50.0 mg/kg/injection, schedule: Q01DX009 (ip), vehicle: saline): 93 % of control | T/C (dose: 100.0 mg/kg/injection, schedule: Q01DX009 (ip), vehicle: saline): 101 % of control | T/C (dose: 200.0 mg/kg/injection, schedule: Q01DX009 (ip), vehicle: saline): 101 % of control

CC[C@@H](C)[C@@H]1NC(=O)C(NC(=O)C(CC(C)C)N(C)C(=O)C2CCCN2C(=O)C(C)O)C(C)OC(=O)C(Cc2ccc(OC)cc2)N(C)C(=O)C2CCCN2C(=O)C(CC(C)C)NC(=O)C(C)C(=O)C(C(C)C)OC(=O)C[C@H]1O (stereo partly specified)
T/C (dose: 0.03 mg/kg/injection, schedule: Q01DX009 (ip), vehicle: none): 171 % of control | T/C (dose: 10.0 micrograms/kg/injection, schedule: Q01DX009 (ip), vehicle: distilled water + alcohol): 112 % of control | T/C (dose: 20.0 micrograms/kg/injection, schedule: Q01DX009 (ip), vehicle: distilled water + alcohol): 112 % of control | T/C (dose: 80.0 micrograms/kg/injection, schedule: Q01DX009 (ip), vehicle: distilled water + alcohol): 155 % of control

CCc1nc(-c2ccccc2)c(-c2ccccc2)[nH]1
T/C (dose: 100.0 mg/kg/injection, schedule: Q04DX003 (ip), vehicle: saline with Tween-80): 90 % of control | T/C (dose: 200.0 mg/kg/injection, schedule: Q04DX003 (ip), vehicle: saline with Tween-80): 90 % of control | T/C (dose: 400.0 mg/kg/injection, schedule: Q04DX003 (ip), vehicle: saline with Tween-80): 95 % of control
